Experimental data as given in paper PMC3679022, “A Cancer Specific Cell-Penetrating Peptide, BR2, for the Efficient Delivery of an scFv into Cancer Cells” (PLoS ONE, 2013).

Columns and labels:
[1] = test system: cancer cells (HeLa, HCT116 and B16/F10); format: cell-based, human, mouse; settings: flow cytometry
Experimental: (§1) To evaluate the internalization of FITC-labeled peptides, HeLa cells were seeded onto 12-well plates at a density of 2×10^5 cells per well and incubated for 24 h. FITC-labeled peptides, at various concentrations ranging from […], were then incubated with the cells for 30 min at 37°C. To compare the cellular uptake of peptides, cancer and normal cells were treated with FITC-labeled peptides (each, 10 µM) and incubated for 30 min at 37°C. Following the incubation, cells were washed three times with ice-cold PBS to remove excess extracellular complexes. Next, the cells were treated with trypsin (1 mg/ml) for 10 min to remove any remaining peptides bound to the cell surface. After trypsinization, the cells were collected by centrifugation (1,000×g for 5 min), resuspended with 500 µl ice-cold 2% FBS/PBS containing propidium iodide (PI), and then immediately analyzed (10,000 events/sample) by fluorescence activated cell sorting (FACS).
(§2) For all of these experimental conditions, flow cytometry analyses were performed with live cells using a Becton Dickinson FACSCalibur flow cytometer (BD Biosciences, San Diego, CA). In each case, the fluorescence of 10,000 viable cells was acquired. Viable cells were gated based on a sideward and forward scatter. […] The statistical significance was evaluated by Student’s t-test at a 95% confidence interval. […]

[2] = test system: cancer cells (HeLa, HCT116 and B16/F10); assay: Confocal laser scanning microscopy of FITC-labeled peptide uptake, cancer cells; format: cell-based, human, mouse; settings: FITC-labeled peptide 5 µM, 30 min, 37°C, live unfixed cells
Experimental: (§3) To investigate the cell-penetrating ability and the intracellular distribution of the internalized peptides, live confocal microscopy was performed on three cancer lines (HeLa, HCT116 and B16/F10) and three normal cell lines (HaCat, BJ and NIH 3T3). Briefly, cells (2×10^5) were plated on a glass coverslip placed in a 6-well plate, grown overnight, and then incubated with FITC-labeled peptides (5 µM for each cell line) for 30 min. The cells were then rinsed three times with phosphate buffered saline (PBS, pH 7.4), and mounted on microscope slides with fluorescence mounting solution (Dako Corp, Carpinteria, CA). Colocalization of BR2 with lysosomes was observed by using LysoTracker Red DND-99 (Molecular Probe, Eugene, OR). To avoid the effects of fixation artifacts, involving both methanol and paraformaldehyde, cells were not fixed, [27]. The distribution of FITC-labeled peptides was analyzed using a confocal scanning laser Zeiss LSM 510 microscope (Jena, Germany) equipped with a 40× and 20× objective. Fluorophores were excited with an argon laser (488 nm) for FITC and a HeNe laser (543 nm) for LysoTracker Red.
(§4) (B,C) In vitro cytotoxicity of peptides.

[3] = test system: cancer cell lines (HeLa, HCT116 and B16/F10); assay: In vitro cytotoxicity assay (LDH leakage), cancer cell lines; settings: 100 µM peptide, 24 h, 37°C; 0.2% Triton X-100 = 100%; n = 3
Experimental: (§5) The cytotoxicity of peptides to mammalian cells was investigated by assessing the release of lactate dehydrogenase (LDH) from cancer and normal cells. The amount of LDH released from damaged cells into the supernatant was measured using the Cytotoxicity Detection Kit (Roche Applied Science, Germany) according to the manufacturer’s instructions. In brief, cells were plated onto 96-well microplates (1×10^4 cells per well) in complete DMEM supplemented with 10% FBS and incubated overnight at 37°C to allow for attachment and spreading of cells. After 24 h of incubation, cells were treated with various concentrations of peptides (0–100 µM) and incubated for another 24 h at 37°C. The extracellular medium from each well was transferred to a new microplate and incubated for 10 min with 100 µl/well reaction mixture, followed by a stop solution. Absorbance was measured at 490 nm by using an ELISA plate reader. LDH release from cells lysed with 0.2% Triton X-100 in PBS was defined as 100% leakage and LDH release from untreated cells as 0% leakage.
(§6) (B,C) In vitro cytotoxicity of peptides. (B) Membrane disturbance was measured by lactate dehydrogenase (LDH) leakage from the indicated cell lines 24 h after peptide treatment. LDH leakage from cells seeded in a 96-well plate at 10,000 cells/well was measured after exposure to 1, 2, 5, 10, 20, 50 or 100 µM peptides for 24 h. […]

[4] = test system: normal cells (HaCat, BJ and NIH 3T3); assay: Flow cytometry of FITC-labeled peptide uptake, normal cells; format: cell-based, human, mouse; settings: FITC-labeled peptide 10 µM, 30 min, 37°C, trypsin 1 mg/ml 10 min before FACS, 10,000 events
Experimental: as §1, §2

[5] = test system: normal cell lines (HaCat, BJ and NIH 3T3); assay: In vitro cytotoxicity assay (LDH leakage), normal cell lines; settings: 24 h, 37°C
Experimental: as §5, §6

[6] = test system: normal cells (HaCat, BJ and NIH 3T3); assay: Confocal laser scanning microscopy of FITC-labeled peptide uptake, normal cells; format: cell-based, human, mouse; settings: FITC-labeled peptide 5 µM, 30 min, 37°C, live unfixed cells
Experimental: as §3, §4

## RAGLQFPVGRLLRRLLR [BR2]
[1]
  transduction efficiency into cancer cells versus normal cells: about 4 fold
[2]
  cellular uptake (confocal microscopy): readily internalized
[3]
  LDH leakage: 40–60%
[4]
  percentage of fluorescence-positive cells (cells that internalized peptide): 23–34%
[5]; 100 µM peptide, 0.2% Triton X-100 = 100%, n = 3
  LDH leakage: ~17%
[5]; peptide concentrations below 70 µM
  LDH leakage: not detected
[6]
  cellular uptake (confocal microscopy): very poorly internalized
